Peptide text beside a SMILES is read from it. * marks the point of attachment. Cbz = O=C(OCc1ccccc1)*
Tests used:
Assay type in all cases: cell-based, human
[1] = tested on: LC3-I, -II, and LAMP-2; experiment: Lysosome pathway markers in HT-29 cells, Western blot; settings: ALD 1 μM, MG-132 20 μM, CQ 50 μM, 9 h
Experimental: FIG. 23(A) is a blot and showing ubiquitination, but not the lysosome pathway, is involved in the regulation of NKCC1 by ALD. To exclude the possibility that depletion of free ubiquitin by the prolonged MG-132 treatment triggered nonspecific inhibition of lysosome degradation of NKCC1 and investigate whether ALD is involved in a lysosome pathway, a parallel experiment with chloroquine (CQ) was performed. Here, the positive marks (+) indicate application of ALD (1 μM), MG132 (20 μM), CQ (50 μM), ALD+CQ, and MG132+CQ for 9 h. An autophagosome marker, autophagy-related gene 8 named as light chain 3 (LC3), and the lysosome-associated membrane protein 2 (LAMP-2) were used was indicators of lysosome pathway activation (phagocytic activity) under treatment with CQ.
(§1) Western blot. Cell lysates were prepared in RIPA buffer (Pierce 89901; Thermo Scientific, Waltham, Mass.) with protease inhibitor cocktail (78430; Thermo Scientific). Cell samples were homogenized in buffer, followed by centrifugation at 2,000 rpm for 10 min at 4° C. Supernatants were subjected to Western blot analysis by loading 200 μg of protein per lane, after the protein concentrations were determined by Bradford protein assay. Proteins were fractionated by SDS-PAGE gel electrophoresis and transferred to a PVDF blotting membrane (Whatman, Piscataway, N.J.). The blot was incubated with primary antibodies against β-actin and Na—K-2C1 cotransport protein (Cell Signaling, Danvers Mass.); primary antibodies for p-SGK1, SGK1, pNedd4-2, and Nedd4-2 were utilized (concentration 1:1,000). The secondary antibody was horseradish peroxidaseconjugated goat anti-rabbit IgG (1:2,000; Cell Signaling).
Ubiquitination, but not the lysosome pathway, is involved in NKCC1 induction by ALD. A parallel experiment was performed with chloroquine (CQ), a lysosome inhibitor, to exclude the possibility that prolonged MG-132 treatment depleted free ubiquitin by nonspecific inhibition of lysosome degradation of NKCC1 and to confirm whether or not ALD is involved in a lysosome pathway. […]

[2] = tested on: NKCC1; experiment: NKCC1 protein expression in HT-29 cells, Western blot
From the text: Cell culture and buffers. […] Arch Oral Biol 52: 411-416, 2007). These include, for example, studies of COMM domain-containing protein 1, which is involved in NKCC1 ubiquitination and transcriptional regulation of epithelial Na^+ channels (ENaC) located in the apical membrane of polarized epithelial cells, in particular, cells in the colon, kidney, and lung, by ALD (Cohen, et al., Induced differentiation in HT29, a human colon adenocarcinoma cell line. J Cell Sci 112: […], 1999, Epple, et al., Early aldosterone effect in distal colon by transcriptional regulation of ENaC subunits. Am J Physiol Gastrointest Liver Physiol 278: G718-G724, 2000, Smith, et al., COMMD1 interacts with the COOH terminus of NKCC1 in Calu-3 airway epithelial cells to modulate NKCC1 ubiquitination. Am J Physiol Cell Physiol 305: C133-C146, 2013). HT-29 cells were grown in DMEM media (Invitrogen, Carlsbad Calif.) with 10% FBS and antibiotics. Cells were grown in a humidified 95%/5% CO2 incubator at 37° C. Experiments were performed at 70-80% confluence.
as §1
Statistical analysis. Images from films were imported into Adobe Photoshop (v 5.0), and further processed using Adobe Photoshop CS and ImageJ (National Institutes of Health) for the densitometry analysis. Data are reported as means±SD. Statistical analyses were performed with PRISM 4.0 (GraphPad Software, San Diego Calif.). Differences were analyzed with a one- or a two-way repeated measures ANOVA as appropriate or a two-way ANOVA followed by Bonferroni post hoc analyses that were corrected for multiple comparisons. Values of P <0.05 were considered significant.

[3] = tested on: NKCC1 ubiquitination; experiment: Immunoprecipitation (autoubiquitination assay) of NKCC1 in HT-29 cells; settings: MG132 20 μM 2 h, then ALD 1 μM and/or GSK 650394 50 μM for 24 h
Experimental: Immunoprecipitation (autoubiquitination assay) and western blot analysis. An autoubiquitination assay was followed (Garg, et al., Effect of the Na—K-2Cl cotransporter NKCC1 on systemic blood pressure and smooth muscle tone. Am J Physiol Heart Circ Physiol 292: H2100-H2105, 2007). Cell extracts were prepared in a modified radioimmunoprecipitation assay 1 (RIPA) buffer, containing the following (in mM): 50 Tris·HCl at pH 7.4, 150 NaCl, 1 EDTA, and 1 dithiothreitol with 1% Nonidet P-40, 0.1% SDS; in a 1:200-diluted protease inhibitor cocktail (Sigma), containing the following (in mM): 1 PMSF, 10 NEM, and 0.1 iodoacetamide Immunoprecipitations were accomplished using a rabbit polyclonal anti-NKCC1 antibody (Cell Signaling). Antibody was bound to lysate with endogenous NKCC1, and then beads were added. Bound proteins were eluted in 1× SDS sample buffer, fractionated on an SDS-polyacrylamide gel, transferred onto a […] membrane (GE Healthcare, Piscataway, N.J.), and immunoblotted with anti-ubiquitin antibody visualized using enhanced chemiluminescence detection reagents (Pears, Shelton Conn.) according to the manufacturer's instructions.
Immunoblotting with anti-ubiquitin antibody was performed as described above.
ALD decreases the endogenous ubiquitination of NKCC1 and inhibition of SGK1 activation blocks this downregulation. […]

[4] = tested on: SGK1 and Nedd4-2; experiment: SGK1 and Nedd4-2 phosphorylation in HT-29 cells, Western blot; settings: 9 h
Experimental: FIG. 25 is a blot showing ALD modulation of NKCC1 via the ALD-SGK1-Nedd4-2 pathway. HT-29 cells were treated with ALD (1 μM) or ALD (1 μM)+GSK650394 (50 μM) for 9 h. Cell lysates were analyzed by Western blot as indicated. Blots are representative of 3 independent experiments. Left: controls. Middle: ALD increases the phosphorylations of SGK1 and Nedd4-2, concomitantly there is an increased induction of NKCC1 protein expression (1st row).
as §1

[5] = tested on: NKCC1; experiment: Tl-uptake in single HT-29 cells (FluxOR) for NKCC1 activity; settings: 24 single HT-29 cells per condition
From the text: Tl-uptake in single cells for the detection of NKCC1 activity. To measure NKCC1 activity, we used a fluorescence assay to assess cotransporter activity in single isolated HT-29 cells (Delpire & Austin, Kinase regulation of Na^+—K^+-2Cl^− cotransport in primary afferent neurons. J Physiol 588: 3365-3373, 2010, Geng, et al., The Ste20 kinases SPAK and OSR1 regulate NKCC1 function in sensory neurons. J Biol Chem 284: 14020-14028, 2009, Weaver, et al., A thallium-sensitive, fluorescence-based assay for detecting and characterizing potassium channel modulators in mammalian cells. J Biomol Screen 9: 671-677, 2004). HT-29 cells were incubated at 37° C./5% CO2 for 24 h before use. […] For the detection of fluorescence, the preincubation solution was removed, and the cells were treated with a 340.5 mosM hypertonic stimulus solution containing the following (in mM): (2.8 TISO4, 140 NaCl, 2 KCl, 2 CaCl2, 0.8 MgSO4, 5 glucose, 20 HEPES, 27 sucrose, 1 ouabain, and 2.7 probenecid) in the presence or absence of 20 μM bumetanide. […] FluxOR fluorescence (excitation/emission: 488/525 nm) was recorded after 90 s upon addition of 2.8 mM […] to the external medium. […]
Influence of ALD on NKCC1 transporter activity. […] To test this hypothesis, a more efficient and sensitive method, fluorescence Ion flux assays was adopted to measure NKCC1 transporter activity. […]

[6] = tested on: Na,K-ATPase; experiment: Na,K-ATPase mRNA expression in HT-29 cells; settings: 5 mM, 24 hr, HT-29, compared to vehicle treatment; preliminary data
Experimental: FIG. 37 is a blot showing the up-regulation of Na, K-ATPase with NH4Cl. L is the DNA ladder, C is the control (vehicle treatment), NH4CL is treatment with 5 mM NH4Cl for 24 hours.
Ammonium chloride (NH4Cl) as part of a proposed treatment of presbycusis is based on the fact that NH4Cl has been used with FDA approval as a diuretic; NH4Cl increases NKCC1 protein expression and activity in several studies in other physiological systems (Jayakumar et al. 2008; Ikebe et al. 2001); c) NH4Cl can also increase Na, K-ATPase activity (Masui et al. 2002; Garcon et al. 2007). For large doses, NH4Cl can induce metabolic acidosis, but in lower doses taken orally, there are no significant side effects in the short term.

## CCN(CC)CCCC(C)Nc1ccnc2cc(Cl)ccc12 (centres unmarked) [CQ, chloroquine]
[1]
  lysosome pathway markers LC3II and LAMP-2 expression levels: significant upregulation of LC3II and LAMP-2 expression levels

## O=C(O)c1ccc(-c2c[nH]c3ncc(-c4ccccc4)cc23)cc1C1CCCC1 [GSK 650394]
[2]; ALD 1 μM + GSK 650394 50 μM, 9 h
  NKCC1 protein expression with ALD in the presence of SGK1 inhibitor: did not increase protein expression of NKCC1
[3]
  endogenous ubiquitinated NKCC1: reduces the ability of ALD to suppress NKCC1 ubiquitination
[4]; ALD 1 μM + GSK 650394 50 μM
  total protein expressions of SGK1 and Nedd4-2: showed no differences
[4]; ALD 1 μM, GSK 650394 50 μM
  phosphorylation of SGK1 and Nedd4-2: blocked phosphorylation of SGK1 and Nedd4-2

## CC(C)C[C@@H](C=O)NC(=O)[C@H](CC(C)C)NC(=O)[C@H](CC(C)C)NC(=O)OCc1ccccc1 [MG132] (Cbz-Leu-Leu-Leu-aldehyde)
[2]; ALD 1 μM, MG-132 20 μM, CQ 50 μM, 9 h
  induction of NKCC1 protein expression: induce NKCC1 protein expression similarly
[2]; MG132, ALD 1 μM, 3, 6, or 9 h
  NKCC1 protein expression: effect of ALD on NKCC1 expression was mimicked by MG132
[5]
  bumetanide-sensitive Tl+ uptake fluorescence: identical enhancements similar to the ALD treatment alone
[1]
  lysosome pathway markers LC3II and LAMP-2 expression levels: without increasing lysosome pathway markers

## Cl.N [NH4Cl, Ammonium chloride]
[6]
  mRNA expression of Na,K-ATPase: enhances the mRNA expression of Na,K-ATPase

## COC(=O)[C@@H]1CC2=CC(=O)CC[C@]2(C)[C@@]23O[C@@H]2C[C@@]2(C)[C@@H](CC[C@@]24CCC(=O)O4)[C@H]13 [eplerenone]
[2]; simultaneous ALD (1 μM) and eplerenone (20 μM)
  effect on ALD upregulation of NKCC1 protein expression: prevented the ALD upregulation of NKCC1 protein expression

Reference: patent US10342806B2, “Hormone treatment for age-related hearing loss-presbycusis” (priority 2014, dated 2019)
